{"source": "patent US9718840B2", "about": "“Condensed 5-oxazolidinone derivative” (SUMITOMO DAINIPPON PHARMA CO., LTD., priority 2014, dated 2017)", "key": {"[1]": {"test_system": "Rabbit nail bleeding models", "test": "Bleeding time evaluation test using rabbit nail bleeding model", "type": "in vivo", "conditions": "for Bleeding time: Experiment 2 (maximum 60 minutes), rabbit; for Bleeding time (fold-increase): Experiment 2, ratio to vehicle group average", "experimental": "Rabbit nail bleeding models were prepared by a modification of the report of Wong et al. (Wong P C. et al., J. Thromb. Haemost. 7: 1313-1320 (2009)). Male rabbits (JW, 1.5 to 3.5 kg) were anesthetized by the inhalation of isoflurane (ISOFLU®, manufactured by DS Pharma Animal Health Co., Ltd.) (introduced anesthesia: 4%, continuous anesthesia: 2 to 3%).\nFor the intravenous administration of a test drug or a vehicle, an indwelling needle was inserted to the auricular vein, and the test drug or the vehicle was promptly intravenously administered (0.67 mL/kg) and then continuously intravenously administered (1 mL/kg/hr). One hour after the start of administration, three posterior toenails were cut and dipped in saline heated to approximately 37° C., and the bleeding time was measured. The bleeding time was defined as a time from the cutting to the arrest of bleeding, and an average value from the three nails was used. The measurement time was 30 minutes at the maximum for experiment 1 and 60 minutes at the maximum for experiment 2. In each experiment, if bleeding for 30 minutes or 60 minutes or longer was confirmed, the bleeding time was regarded as 30 minutes or 60 minutes."}, "[2]": {"test": "Dog PK test (Test Example 9)", "type": "in vivo", "conditions": "plasma, 1 mg/kg, male beagle, intravenous, 1 mg/2 mL/kg, read-out: AUC from 0 hours to 24 hours (compound of Reference Example 2-6 in plasma)", "experimental": "The compound of Reference Example 2-6 was dissolved in a mixed solution of saline/0.1 N HCl=9/1, and this solution was intravenously administered at a dose of 1 mg/2 mL/kg to a male beagle. Blood collection was carried out 0.25, 0.5, 1, 2, 4, 6, and 24 hours after administration. 2 mL of blood was collected using a syringe packed with 20 μL of Novo-Heparin Injection, transferred to a centrifugal tube cooled in ice, and centrifuged at 3000 rpm at 4° C. for 10 minutes to prepare plasma. 200 μL of the prepared plasma was added to a tube containing 600 μL of acetonitrile and mixed for approximately 10 seconds using a vortex mixer. Then, the concentration of the compound of Reference Example 2-6 was measured.\nThe compound of Example 7 was suspended in a 0.5% aqueous methylcellulose solution, and this suspension was orally administered at a dose of 5 mg/5 mL/kg to a male beagle fasted for 16 hours. Blood collection was carried out 0.5, 1, 2, 4, 6, and 24 hours after administration. 2 mL of blood was collected using a syringe packed with 20 μL of Novo-Heparin Injection, transferred to a centrifugal tube cooled in ice, and centrifuged at 3000 rpm at 4° C. for 10 minutes to prepare plasma. […] Then, the concentration of the compound of Reference Example 2-6 was measured."}, "[3]": {"test_system": "Rabbit venous thrombus models", "test": "Effect of combined use with antiplatelet drug using rabbit AVST model", "type": "in vivo", "conditions": "alone", "experimental": "Rabbit venous thrombus models were prepared by a modification of the report of Wong et al. (Wong P C. et al., J. Pharmacol. Exp. Ther. 292: 351-357 (2000)). […] A tracheostomy tube was inserted to each rabbit, which was then ventilated using a respirator. For the intravenous administration of a test drug and blood collection, catheters were inserted to the right femoral vein and the right femoral artery, respectively. An arteriovenous shunt filled with saline was inserted to the carotid artery and the jugular vein. […] Also, 4-0 silk thread having a length of 5 cm was indwelled in the arteriovenous shunt. Blood was sent for 30 minutes from the carotid artery to the jugular vein via the arteriovenous shunt. The shunt was removed, and the weight of the silk thread covered with thrombus was measured. The weight of the silk thread measured before the experiment was subtracted from the measured weight, and the obtained value was used as a wet thrombus weight. One hour before the open of the arteriovenous shunt, the test drug or a vehicle was promptly intravenously administered (0.67 mL/kg) and then continuously intravenously administered (1 mL/kg/hr). The continuous injection was continued throughout the experiment. […] STA calcium chloride (manufactured by Roche Diagnostics K.K.) was added in an amount equal thereto, and the time required for coagulation was measured."}, "Human t-PA": {"biological_target": "T1, Human t-PA (Homo sapiens, UniProt P00750)", "T1 construct": "purchased Calbiochem", "T1 sequence (P00750 36-562)": "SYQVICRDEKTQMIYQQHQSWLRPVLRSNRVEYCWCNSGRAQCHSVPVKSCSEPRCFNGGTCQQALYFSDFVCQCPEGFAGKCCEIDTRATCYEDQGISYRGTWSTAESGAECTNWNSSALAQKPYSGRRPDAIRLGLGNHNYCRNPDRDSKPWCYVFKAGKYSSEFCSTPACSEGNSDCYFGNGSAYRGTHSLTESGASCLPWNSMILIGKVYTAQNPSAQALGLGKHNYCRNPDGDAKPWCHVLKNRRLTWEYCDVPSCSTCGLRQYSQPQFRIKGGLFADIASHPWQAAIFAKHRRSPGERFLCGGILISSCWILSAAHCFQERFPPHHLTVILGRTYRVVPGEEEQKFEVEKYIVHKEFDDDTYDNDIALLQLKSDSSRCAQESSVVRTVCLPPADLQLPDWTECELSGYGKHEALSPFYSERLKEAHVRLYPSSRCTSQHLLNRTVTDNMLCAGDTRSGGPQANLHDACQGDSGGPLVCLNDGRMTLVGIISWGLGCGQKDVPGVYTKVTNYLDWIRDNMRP", "test": "Enzyme selectivity evaluation test: t-PA", "type": "biochemical", "experimental": "S-2288 (H-D-Ile-Pro-Arg-pNA.2HCl) was added as the substrate at a final concentration of 300 μmol/L. After progression of the reaction, the absorbance was measured at OD 405 nm."}, "[4]": {"conditions": "dose 0.5 + 0.75 mg/kg + mg/kg/h i.v."}, "[5]": {"conditions": "dose 1.5 + 2.25 mg/kg + mg/kg/h i.v."}, "[6]": {"conditions": "dose 5.0 + 7.5 mg/kg + mg/kg/h i.v."}, "[7]": {"conditions": "dose 15 + 22..5 mg/kg + mg/kg/h i.v."}}, "data": [{"smiles": "Cl.N[C@H](CF)[C@H]1CC[C@H](C(=O)N2CC[C@@H](C3CCCCC3)[C@H]2C(=O)Nc2ccc3[nH]c(C(=O)O)cc3c2)CC1", "note": "[Reference Example 2-6, 5-{[(3S)-1-({trans-4-[(1S)-1-Amino-2-fluoroethyl]cyclohexyl}carbonyl)-3-cyclohexyl-L-prolyl]amino}-1H-indole-2-carboxylic acid hydrochloride]", "values": [{"measurement": "Bleeding time", "setting": "[1]; [4]", "result": "843 ± 270", "unit": "s"}, {"measurement": "Bleeding time", "setting": "[1]; [5]", "result": "772 ± 234", "unit": "s"}, {"measurement": "Bleeding time", "setting": "[1]; [6]", "result": "768 ± 236", "unit": "s"}, {"measurement": "Bleeding time", "setting": "[1]; [7]", "result": "656 ± 198", "unit": "s"}, {"measurement": "Bleeding time (fold-increase)", "setting": "[1]; [4]", "result": "1.5 ± 0.5", "unit": "fold-increase"}, {"measurement": "Bleeding time (fold-increase)", "setting": "[1]; [5]", "result": "1.3 ± 0.4", "unit": "fold-increase"}, {"measurement": "Bleeding time (fold-increase)", "setting": "[1]; [6]", "result": "1.3 ± 0.4", "unit": "fold-increase"}, {"measurement": "Bleeding time (fold-increase)", "setting": "[1]; [7]", "result": "1.1 ± 0.3", "unit": "fold-increase"}, {"measurement": "AUC", "setting": "[2]", "result": 4420, "unit": "ng·h/mL"}, {"measurement": "PT (ratio)", "setting": "[3]; [4]", "result": "1.00 ± 0.02", "unit": "ratio"}, {"measurement": "Thrombus weight", "setting": "[3]; [4]", "result": "66 ± 22", "unit": "mg"}, {"measurement": "aPTT (ratio)", "setting": "[3]; [4]", "result": "1.59 ± 0.15", "unit": "ratio"}, {"measurement": "PT (ratio)", "setting": "[3]; [5]", "result": "1.01 ± 0.00", "unit": "ratio"}, {"measurement": "Thrombus weight", "setting": "[3]; [5]", "result": "36 ± 6", "unit": "mg"}, {"measurement": "aPTT (ratio)", "setting": "[3]; [5]", "result": "1.84 ± 0.10", "unit": "ratio"}, {"measurement": "IC50", "setting": "Human t-PA", "result": "> 10", "unit": "µM"}]}]}
